Read-outs that look alike come from different tables or passages of the source. *1 amine or outer side, *2 acyl side, *3 side chain or, on linkers, in order; H or OH if unused. Where a SMILES comes first, the peptide text is derived from it. Bridges are numbered along the chain shown (N, C = ends). [ ]: non-standard residue; d: D form. NHCH2CMe2S = CC(C)(CN[*:1])S[*:2]
Columns and labels:
[1] = Serum stability; type: in vitro ADME; settings: rat
Description: Purified DP-7-11 (1 mg/mL) was dissolved in 0.1 M ammonium bicarbonate (NH4HCO3) buffer. To prepare a stock trypsin solution, 1 mg trypsin was dissolved in 50 mL of 0.1 M NH4HCO3 buffer. Equal volumes of the stock trypsin solution (62.5 μL) and DP-7-11 solution (62.5 μL) were incubated in 375 μL of 0.1M NH4HCO3 buffer in a 37° C. water bath. Aliquots of 100 μL were collected from this mixture at set time intervals of 0 min, up to 24 hours. Ice-cold acetonitrile containing 0.5% TFA was used to quench the reaction between DP-7-11 and trypsin at predetermined intervals, and just prior to HPLC or LC-MS analysis. The quenched samples were vortexed for 10 minutes followed by centrifugation at 12,000 rpm for a further 15 minutes. Supernatant was sampled and analysed using analytical RP-HPLC or LC-MS. Samples without trypsin acted as negative controls and were sampled at two intervals of 0 hour and 6 hours.
Serum stability of DP-7-11 was also performed. In this regard, rat serum replaced trypsin and NH4HCO3 buffer. Water was used as negative control in place of serum, with the stability study performed in an identical fashion to the trypsin study. […] DP-11-00 and DP-11-06 were tested in a similar manner.
As used in this serum and trypsin stability discussion, the term ‘degraded completely’ relates to the relevant compound being completely absent when tested. In other words, the compound being tested is not observed when tested.
This appears to indicate the improved metabolic stability of the present invention.
The serum and trypsin stability of DP-7-11 and DP-7-12 were tested (in some instances again) using LC-MS. The LC-MS utilized in this study was more sensitive than the LC-MS utilized in the above tests.

[2] = target: MOP (Homo sapiens, UniProt P35372); assay: In vitro cAMP activity at MOP (Table 10); type: cell-based; settings: cAMP inhibition, four-parameter regression
Description: The CP series compounds were assayed as follows: The assay was performed using a 96 well ½ area plate. The different cAMP standard solutions (3 μL/well) were plated in duplicate. The different concentrations of drug (3 μL/well), and control solutions (3 μL/well) were plated in triplicate. Following this, the acceptor bead mixture (3 μL/well) was added to the respective sets—either cAMP standard curve or the treatment. This was covered and incubated on the orbital shaker for 60 minutes at 37° C. Then, the donor bead mixture (10 μL/well) was added to each well. This was incubated at room temperature overnight on the orbital shaker.
For DP-11-06 the assay was carried out in the same way as for the CP compounds except it was incubated for 30 mins at 37° C.
For the CP series compounds and DP-11-06, the Ensight® Multimode Plate Reader was used to quantify the fluorescence units of each plate. Before reading, each plate was centrifuged at 280 g for 30 seconds. Using GraphPad Prism7® Software, cAMP concentrations were determined by fit spline/LOWESS analysis. The cAMP standard curve was used for interpolation at this point. The cAMP concentrations were then normalized to the highest cAMP concentration recorded and analyzed by one-way ANOVA for multiple comparisons. The IC50 for each compound was then calculated using GraphPad Prism7® with non-linear regression analysis using four parameter curve fitting.
In this regard, a different regression analysis method was adopted on the above cAMP experiments. Particularly, a new non-linear regression (four-parameter) was adopted to better account for hill slope, thereby improving the regression fit.

[3] = target: KOP (Homo sapiens, UniProt P41145); assay: cAMP assay with naloxone in HEK-KOP cells; type: cell-based; settings: naloxone 100 μM/well; for Mean cAMP response (FIG. 14): HEK-KOP, naloxone assay, peptide at approximate IC80; for Naloxone reversal of cAMP inhibition through KOP: p<0.01
Description: The preparation of buffers, cAMP standard curve, bead solutions were carried out identically to the agonist assay.
Forskolin had been optimised at 50 μM/well. Thus, the 25 mM stocks were used to prepare 300 μL of 0.3 mM Forskolin. The concentration of Forskolin prepared was 6 times the required concentration in the well to account for further dilution in the well. Forskolin solution was then made from this and used to dilute the drug solutions.
Approximate IC80 values were used for DP-7-11 and DP-7-12 to determine the ability of naloxone to reverse agonist inhibitory effect.
The desired concentration of naloxone was 100 μM/well. Thus, 100 μL of 600 μM naloxone was made up from 100 mM stock. This was 6 times the desired in-well concentration to account for further dilution in the well by Forskolin, peptide, cells and acceptor bead solutions.
Stimulation buffer was added to the 0.3 mM Forskolin solution to prepare the Forskolin only treatment solution as the positive control. Stimulation buffer used as the negative control.
The DP series compounds were assayed as follows: The different cAMP standard solutions (3 μL/well) were plated in duplicate. Naloxone solution was then plated (1 μL/well) for each treatment (DP-7-11, DP-7-12, Forskolin only and stimulation buffer) in triplicate. In the same way, stimulation buffer was plated (1 μL/well) for the same number of wells. This made up two sets of wells, antagonist and non-antagonist. Following this, the acceptor bead and cell mixture (3 μL/well) was added to the treatment wells. The plates were then covered and centrifuged at 280 g for 30 seconds before incubation on an orbital shaker for 30 minutes at room temperature. The acceptor bead mixture (3 μL/well) was then added to the cAMP standard curve wells, whilst the drug mixed with Forskolin solutions (3 μL/well) were added to the respective treatment wells in triplicate. Again, the plates were centrifuged at 280 g for 30 seconds, then covered and incubated on the orbital shaker for another 30 minutes. Finally, the donor bead mixture (10 μL/well) was added to each well. This was incubated at room temperature overnight on the orbital shaker.
The Ensight® Multimode Plate Reader was used to quantify the fluorescence units of each plate. Before reading, each plate was centrifuged at 280 g for 30 seconds. Using GraphPad Prism7® Software, cAMP concentrations were determined from the fluorescence data by fit spline/LOWESS analysis. The cAMP standard curve was used for interpolation at this point. The cAMP concentrations were then normalized to the highest cAMP concentration recorded and analyzed by one-way ANOVA for multiple comparisons. This analysis was corrected for multiple comparisons using Bonferroni. […]

Sequence of KOP (P41145 whole entry): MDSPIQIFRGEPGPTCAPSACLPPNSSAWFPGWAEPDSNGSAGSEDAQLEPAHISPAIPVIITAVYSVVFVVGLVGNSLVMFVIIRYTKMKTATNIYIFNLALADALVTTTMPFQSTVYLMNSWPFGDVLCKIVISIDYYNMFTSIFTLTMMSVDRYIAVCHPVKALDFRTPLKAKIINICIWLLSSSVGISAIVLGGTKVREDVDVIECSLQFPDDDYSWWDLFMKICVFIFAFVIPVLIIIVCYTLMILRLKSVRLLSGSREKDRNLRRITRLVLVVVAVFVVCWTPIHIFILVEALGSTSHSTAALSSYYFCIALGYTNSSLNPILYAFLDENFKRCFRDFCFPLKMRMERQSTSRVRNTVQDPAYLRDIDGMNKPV
Sequence of MOP (P35372 whole entry): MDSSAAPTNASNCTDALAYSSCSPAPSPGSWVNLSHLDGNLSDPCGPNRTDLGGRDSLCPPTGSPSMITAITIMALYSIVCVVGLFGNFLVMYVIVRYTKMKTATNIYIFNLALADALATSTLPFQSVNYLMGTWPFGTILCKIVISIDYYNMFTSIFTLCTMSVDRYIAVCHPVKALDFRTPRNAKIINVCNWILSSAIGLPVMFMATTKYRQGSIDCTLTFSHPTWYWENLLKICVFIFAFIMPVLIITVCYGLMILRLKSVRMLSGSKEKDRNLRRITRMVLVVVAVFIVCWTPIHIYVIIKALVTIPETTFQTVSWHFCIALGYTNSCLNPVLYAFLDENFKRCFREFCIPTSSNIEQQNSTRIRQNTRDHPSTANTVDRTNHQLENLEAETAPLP

SMILES | half-life at 0.125 mg/mL ([1]; 37° C., LC-MS (Table 8), read-out: Serum half-life (converted)) | half-life at 0.125 mg/mL ([1]; more sensitive LC-MS (Table 8a), read-out: Incubation in serum: half life) | metabolised at 6 h, 0.125 mg/mL ([1]; up to 6 h, more sensitive LC-MS, read-out: Degradation in serum) | EC50 [2] | Mean cAMP response (FIG. 14) [3] | Naloxone reversal of cAMP inhibition through KOP [3] | remaining at 1 h, 0.125 mg/mL ([1]; after 1 hr, read-out: Peptide still present in serum) | remaining at 2 h, 0.125 mg/mL ([1]; after 2 hours, read-out: Peptide still present in serum) | half-life at 0.125 mg/mL ([1]; more sensitive LC-MS (Table 8a), read-out: Incubation in serum: half-life)
CC1(C)CNC(=O)C[C@H](C(=O)N[C@@H](CCCNC(=N)N)C(=O)N[C@@H](CCCNC(=N)N)C(N)=O)NC(=O)[C@H](Cc2ccccc2)NC(=O)CNC(=O)[C@@H](NC(=O)[C@@H](N)Cc2ccc(O)cc2)CSS1 [DP-7-11, c(Tyr-SSa-Gly-Phe-D(Asp)-Arg-Arg)] | 360 min | > 360 min | ~10% | > 10000 nM | 56.14% | reversed by naloxone | – | – | –
CC1(C)CNC(=O)C[C@@H](NC(=O)[C@@H](N)Cc2ccc(O)cc2)C(=O)NCC(=O)N[C@@H](Cc2ccccc2)C(=O)N[C@H](C(=O)N[C@@H](CCCNC(=N)N)C(=O)N[C@@H](CCCNC(=N)N)C(N)=O)CSS1 [DP-7-12, c(Tyr-D(Asp)-Gly-Phe-SSa-Arg-Arg)] (H-Y[dD]GFCRR-NH2; linker 2-5 via NHCH2CMe2S) | – | – | – | 2.7 nM | 52.40% | reversed by naloxone | ~67% | ~20% | ~45 min
